Measured values published in ChEMBL document CHEMBL1201862, “PubChem BioAssay data set” (2004).
Values belong to the compound of their own block, whether it stands above or below them. Activity calls are given as the source filed them.

Assays:
[1] = target: Eukaryotic translation initiation factor 4H (Homo sapiens, UniProt Q15056); experiment: inhibitors of translation initiation factor eIF4H – SAR follow-up (AID 435011); format: functional
[2] = target: Polyadenylate-binding protein 1 (Homo sapiens, UniProt P11940); experiment: PABP inhibition in translation initiation, SAR follow-up (AID 435018); format: functional
[3] = target: Chaperone protein dnaK (Escherichia coli, UniProt C3TRK2); experiment: E. coli DnaK binders, calorimetric Kd – biophysical, isothermal titration calorimetry, beta-domain, full-length DnaK, orthogonal assay for DnaK modulator project, SAR follow-up (AID 1495)
[4] = target: Aspartyl aminopeptidase (Plasmodium falciparum 3D7, UniProt Q8I2J3)
[5] = target: Procathepsin L (Homo sapiens, UniProt P07711)
[6] = target: T1, Mannose-6-phosphate isomerase (Homo sapiens, UniProt P34949); experiment: MPI enzyme activity inhibition – biochemical, fluorescence intensity, coupled assay, primary screen (AID 1209)
T1 sequence (P34949 whole entry): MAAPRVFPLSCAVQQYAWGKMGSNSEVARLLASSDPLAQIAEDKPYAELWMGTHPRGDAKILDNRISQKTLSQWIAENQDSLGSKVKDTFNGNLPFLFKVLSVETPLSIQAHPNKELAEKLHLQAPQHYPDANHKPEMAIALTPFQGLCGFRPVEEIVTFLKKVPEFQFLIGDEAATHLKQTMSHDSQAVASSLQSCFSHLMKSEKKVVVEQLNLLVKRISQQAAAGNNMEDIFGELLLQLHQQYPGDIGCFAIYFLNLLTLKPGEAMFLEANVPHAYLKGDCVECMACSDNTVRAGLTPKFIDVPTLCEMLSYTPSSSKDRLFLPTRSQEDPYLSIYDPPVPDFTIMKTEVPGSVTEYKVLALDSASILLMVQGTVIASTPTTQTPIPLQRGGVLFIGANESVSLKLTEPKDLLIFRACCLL

[7] = target: T1, Mannose-6-phosphate isomerase; experiment: MPI inhibition at elevated mannose 6-phosphate – biochemical, fluorescence intensity, high mannose 6-phosphate, primary screen (AID 1220)
[8] = target: DNA dC->dU-editing enzyme APOBEC-3A (Homo sapiens, UniProt P31941); experiment: A3A deaminase inhibition for selectivity – biochemical, dose response (AID 504722); format: functional
[9] = target: DNA dC->dU-editing enzyme APOBEC-3G (Homo sapiens, UniProt Q9HC16); experiment: Dose Response confirmation of small molecule APOBEC3G DNA Deaminase Inhibitors via a fluorescence-based single-stranded DNA deaminase assay. [Related pubchem assays (depositor defined):AID493012, AID493028]; format: functional
[10] = target: G-protein coupled receptor 55 (Homo sapiens, UniProt Q9Y2T6); experiment: selective activators of receptor GPR55 – imaging, U2OS cells, beta-arrestin-GFP redistribution, primary screen (AID 1961); format: functional
[11] = target: Bcl-2-like protein 10 (Homo sapiens, UniProt Q9HD36); experiment: Bcl-B/TR3 peptide binding disruption – biochemical, fluorescence polarization, FITC-TR3 peptide, selectivity assay for Bfl-1 inhibitor project, primary screen (AID 748);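 note: fluorescence polarization from a fluorescein-labelled TR3 peptide binding purified Bcl-B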
[12] = target: Cytochrome P450 2C9 (Homo sapiens, UniProt P11712); details: Potency
[13] = target: Neuropeptides B/W receptor type 1 (Homo sapiens, UniProt P48145); experiment: Fluorescence-based dose response cell-based high throughput screening assay to identify antagonists of the G-protein coupled receptor 7 (GPR7). [Related pubchem assays: 1952 (Screening assay (GPR7 antagonists).), 1880 (Summary AID.)]; format: functional
[14] = target: Melanin-concentrating hormone receptor 1 (Homo sapiens, UniProt Q99705); experiment: Fluorescence-based counterscreen for antagonists of the G-protein coupled receptor 7 (GPR7): cell-based high throughput dose response assay to identify antagonists of the melanin-concentrating hormone receptor 1 (MCHR1).; format: functional
[15] = system: Staphylococcus aureus; experiment: Inhibitors of Bacterial Quorum Sensing Structure Activity Relationship (SAR) Analysis: Dose Response Assay. [Related pubchem assays: 700, 527 ]; format: functional, organism-based

Chain of DNA dC->dU-editing enzyme APOBEC-3G (Q9HC16 whole entry): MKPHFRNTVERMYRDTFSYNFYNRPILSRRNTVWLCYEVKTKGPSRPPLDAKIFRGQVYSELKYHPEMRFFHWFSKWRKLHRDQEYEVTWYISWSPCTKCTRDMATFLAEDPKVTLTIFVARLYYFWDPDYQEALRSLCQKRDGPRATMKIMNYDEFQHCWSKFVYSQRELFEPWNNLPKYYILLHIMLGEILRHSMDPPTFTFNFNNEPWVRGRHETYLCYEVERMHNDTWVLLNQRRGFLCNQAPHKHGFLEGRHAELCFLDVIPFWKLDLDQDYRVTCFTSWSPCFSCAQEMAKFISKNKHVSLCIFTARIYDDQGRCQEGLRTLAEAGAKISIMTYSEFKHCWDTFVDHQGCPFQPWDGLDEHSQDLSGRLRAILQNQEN
Chain of G-protein coupled receptor 55 (Q9Y2T6 whole entry): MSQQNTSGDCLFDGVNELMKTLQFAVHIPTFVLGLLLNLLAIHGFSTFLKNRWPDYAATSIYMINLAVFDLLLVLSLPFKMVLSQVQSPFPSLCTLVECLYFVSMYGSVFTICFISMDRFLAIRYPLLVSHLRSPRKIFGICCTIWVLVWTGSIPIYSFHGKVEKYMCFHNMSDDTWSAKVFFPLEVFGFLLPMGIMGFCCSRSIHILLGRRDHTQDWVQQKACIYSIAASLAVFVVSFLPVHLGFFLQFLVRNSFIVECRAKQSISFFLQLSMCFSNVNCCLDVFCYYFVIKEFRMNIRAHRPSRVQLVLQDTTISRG
Chain of Procathepsin L (P07711 whole entry): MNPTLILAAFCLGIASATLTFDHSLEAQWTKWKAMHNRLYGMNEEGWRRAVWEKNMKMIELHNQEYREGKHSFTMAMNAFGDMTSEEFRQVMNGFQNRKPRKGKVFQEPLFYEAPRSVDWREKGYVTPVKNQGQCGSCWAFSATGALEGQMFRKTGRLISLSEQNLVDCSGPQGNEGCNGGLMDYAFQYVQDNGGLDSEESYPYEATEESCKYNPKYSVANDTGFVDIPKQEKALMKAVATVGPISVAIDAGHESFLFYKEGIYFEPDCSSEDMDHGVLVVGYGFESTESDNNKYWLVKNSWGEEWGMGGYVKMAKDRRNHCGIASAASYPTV
Chain of Bcl-2-like protein 10 (Q9HD36 whole entry): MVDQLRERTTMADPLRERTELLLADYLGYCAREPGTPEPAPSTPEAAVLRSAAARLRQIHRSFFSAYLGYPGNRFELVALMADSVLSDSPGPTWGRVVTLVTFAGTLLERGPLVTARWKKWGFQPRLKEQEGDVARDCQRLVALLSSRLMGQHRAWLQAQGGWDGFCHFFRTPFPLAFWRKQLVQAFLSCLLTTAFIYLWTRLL
Chain of Chaperone protein dnaK (C3TRK2 whole entry): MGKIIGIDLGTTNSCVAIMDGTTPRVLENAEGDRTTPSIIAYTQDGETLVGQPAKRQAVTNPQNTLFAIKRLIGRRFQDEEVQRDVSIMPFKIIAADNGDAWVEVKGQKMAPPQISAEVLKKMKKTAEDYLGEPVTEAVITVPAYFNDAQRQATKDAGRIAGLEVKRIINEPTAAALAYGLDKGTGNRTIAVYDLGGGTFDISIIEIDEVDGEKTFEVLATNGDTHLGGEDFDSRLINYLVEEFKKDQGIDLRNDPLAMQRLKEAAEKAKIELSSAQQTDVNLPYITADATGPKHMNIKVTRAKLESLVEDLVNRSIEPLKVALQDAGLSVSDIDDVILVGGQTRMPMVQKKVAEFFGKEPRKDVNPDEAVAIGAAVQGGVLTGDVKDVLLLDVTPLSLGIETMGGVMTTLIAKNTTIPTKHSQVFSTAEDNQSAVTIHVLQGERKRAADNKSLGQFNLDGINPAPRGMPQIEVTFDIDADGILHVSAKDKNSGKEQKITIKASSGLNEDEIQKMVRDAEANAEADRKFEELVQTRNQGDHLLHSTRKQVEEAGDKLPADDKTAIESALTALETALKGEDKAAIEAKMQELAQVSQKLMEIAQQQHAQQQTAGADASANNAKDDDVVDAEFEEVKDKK
Chain of DNA dC->dU-editing enzyme APOBEC-3A (P31941 whole entry): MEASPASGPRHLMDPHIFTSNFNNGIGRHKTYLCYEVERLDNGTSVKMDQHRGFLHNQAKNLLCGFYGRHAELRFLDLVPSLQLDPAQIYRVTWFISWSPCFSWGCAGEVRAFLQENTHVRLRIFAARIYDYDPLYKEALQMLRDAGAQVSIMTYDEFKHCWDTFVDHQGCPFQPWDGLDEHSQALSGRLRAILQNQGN
Chain of Aspartyl aminopeptidase (Q8I2J3 whole entry): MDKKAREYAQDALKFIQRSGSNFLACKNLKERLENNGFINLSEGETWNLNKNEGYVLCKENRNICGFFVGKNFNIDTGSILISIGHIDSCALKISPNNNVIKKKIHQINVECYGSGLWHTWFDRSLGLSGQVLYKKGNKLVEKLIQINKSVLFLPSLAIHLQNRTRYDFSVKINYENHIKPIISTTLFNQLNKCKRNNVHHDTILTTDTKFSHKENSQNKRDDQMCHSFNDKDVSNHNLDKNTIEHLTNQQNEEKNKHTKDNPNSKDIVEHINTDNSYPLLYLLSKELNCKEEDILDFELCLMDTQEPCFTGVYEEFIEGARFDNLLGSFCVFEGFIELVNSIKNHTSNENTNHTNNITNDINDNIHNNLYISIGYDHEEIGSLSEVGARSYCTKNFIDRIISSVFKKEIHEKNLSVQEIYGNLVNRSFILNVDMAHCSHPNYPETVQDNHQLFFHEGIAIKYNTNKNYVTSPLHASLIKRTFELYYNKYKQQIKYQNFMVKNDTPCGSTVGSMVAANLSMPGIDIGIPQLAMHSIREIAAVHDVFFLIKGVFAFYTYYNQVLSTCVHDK
Chain of Melanin-concentrating hormone receptor 1 (Q99705 whole entry): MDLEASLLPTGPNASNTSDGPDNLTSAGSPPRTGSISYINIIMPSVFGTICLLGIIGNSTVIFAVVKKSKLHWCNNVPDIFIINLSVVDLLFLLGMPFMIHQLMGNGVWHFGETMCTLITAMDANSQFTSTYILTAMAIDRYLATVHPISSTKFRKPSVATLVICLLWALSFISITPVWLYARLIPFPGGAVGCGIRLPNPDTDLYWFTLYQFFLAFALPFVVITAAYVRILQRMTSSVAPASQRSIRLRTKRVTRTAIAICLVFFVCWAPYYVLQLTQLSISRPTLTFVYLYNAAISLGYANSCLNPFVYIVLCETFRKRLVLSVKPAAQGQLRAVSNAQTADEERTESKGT
Chain of Polyadenylate-binding protein 1 (P11940 whole entry): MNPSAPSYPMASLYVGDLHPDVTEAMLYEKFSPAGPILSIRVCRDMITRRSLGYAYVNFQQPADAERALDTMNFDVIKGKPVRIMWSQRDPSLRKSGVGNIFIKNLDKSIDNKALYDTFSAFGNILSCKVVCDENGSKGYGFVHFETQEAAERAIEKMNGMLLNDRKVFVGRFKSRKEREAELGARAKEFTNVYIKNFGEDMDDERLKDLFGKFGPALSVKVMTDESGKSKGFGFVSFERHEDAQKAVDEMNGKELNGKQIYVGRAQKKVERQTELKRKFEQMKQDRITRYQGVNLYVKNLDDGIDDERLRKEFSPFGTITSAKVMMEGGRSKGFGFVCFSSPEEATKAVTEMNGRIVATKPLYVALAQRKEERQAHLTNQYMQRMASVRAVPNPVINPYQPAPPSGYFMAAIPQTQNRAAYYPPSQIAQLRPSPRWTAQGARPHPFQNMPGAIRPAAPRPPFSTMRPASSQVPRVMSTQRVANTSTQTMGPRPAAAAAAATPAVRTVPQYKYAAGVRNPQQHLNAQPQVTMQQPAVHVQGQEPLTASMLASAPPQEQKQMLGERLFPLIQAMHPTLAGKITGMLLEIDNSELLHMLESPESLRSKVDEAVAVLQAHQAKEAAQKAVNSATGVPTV
Chain of Neuropeptides B/W receptor type 1 (P48145 whole entry): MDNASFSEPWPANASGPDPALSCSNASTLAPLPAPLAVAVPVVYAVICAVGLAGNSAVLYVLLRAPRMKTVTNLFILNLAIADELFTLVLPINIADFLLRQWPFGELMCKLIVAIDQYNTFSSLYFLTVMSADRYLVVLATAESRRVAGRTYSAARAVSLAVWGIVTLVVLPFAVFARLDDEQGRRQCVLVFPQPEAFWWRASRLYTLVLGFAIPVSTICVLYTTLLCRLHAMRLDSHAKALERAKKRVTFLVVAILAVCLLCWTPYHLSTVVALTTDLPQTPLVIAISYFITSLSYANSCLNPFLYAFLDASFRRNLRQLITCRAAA
Chain of Cytochrome P450 2C9 (P11712 whole entry): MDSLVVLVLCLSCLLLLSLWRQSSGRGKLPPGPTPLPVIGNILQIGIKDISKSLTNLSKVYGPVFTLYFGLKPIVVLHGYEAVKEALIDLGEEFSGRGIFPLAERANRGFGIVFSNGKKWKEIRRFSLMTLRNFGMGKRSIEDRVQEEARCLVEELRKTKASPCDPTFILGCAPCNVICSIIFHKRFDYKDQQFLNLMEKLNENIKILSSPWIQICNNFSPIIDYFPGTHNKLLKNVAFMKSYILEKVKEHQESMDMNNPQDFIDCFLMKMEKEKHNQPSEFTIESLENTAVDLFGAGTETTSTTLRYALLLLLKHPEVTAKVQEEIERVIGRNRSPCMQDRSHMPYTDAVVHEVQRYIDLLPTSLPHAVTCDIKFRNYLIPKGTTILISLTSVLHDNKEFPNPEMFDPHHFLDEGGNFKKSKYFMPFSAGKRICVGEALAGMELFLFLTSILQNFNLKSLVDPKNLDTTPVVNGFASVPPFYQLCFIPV

Structure (SMILES): COCc1ccc(C(=O)OCC(=O)Nc2ccc([N+](=O)[O-])cc2OC)cc1
IC50 [1]: > 100 µM (inactive) | IC50 [2]: > 100 µM (inactive)

Structure (SMILES): CC(Cc1ccc(F)cc1)NC(=O)c1cccs1 (stereo not given)
Kd [3]: 28 µM (inactive)

Structure (SMILES): Cc1cc(C)n2c(S)nnc2n1
IC50 [4]: 6.41 µM (active) | IC50 [5]: > 59.6 µM (not active) | IC50 [6]: 43.2 µM (active) | IC50 [7]: > 50 µM (not active) | IC50 [8]: > 100 µM (inactive) | IC50 [9]: 17 µM (active)

Structure (SMILES): O=C(NCC(c1cccnc1)N1CCN(c2ccccc2)CC1)c1cccs1 (stereo not given)
IC50 [15]: 1.05 µM (active)

Continued, values first:

EC50 [10]: 0.874 µM (active)
Structure (SMILES): NC(=S)N/N=C/c1c[nH]c2ccc(OCc3ccccc3)cc12

IC50 [11]: 60.5 µM (inactive)
Structure (SMILES): c1cc2c3c(cccc3c1)NC1(CCCCC1)N2

AC50 [12]: 39.8 µM (inconclusive)
Structure (SMILES): CC(C)C[C@@H](CC(=O)N[C@@H](CCCN)CC(=O)N[C@@H]1CCCC[C@H]1C(=O)N[C@H](CC(=O)N[C@@H](CCC(=O)O)CC(=O)O)CC(C)C)NC(=O)[C@@H]1CNCC[C@H]1N

IC50 [13]: > 14.6 µM (not active) | IC50 [14]: 11.9 µM (not active)
Structure (SMILES): O=C(NCc1cccnc1)c1cc(-c2ccc(Cl)cc2)oc1C(F)(F)F
